Experimental data: ChEMBL document CHEMBL1151189, “Antimicrobial chlorinated bibenzyls from the liverwort Riccardia marginata” (2004)
Activity calls are given as the source filed them. The rule behind the calls is not given here.

Legend:
[1] = tested on: Bacillus subtilis; assay: Antimicrobial activity against Bacillus subtilis at 30 ug/disk; format: functional; details: read-out: IZ
[2] = tested on: Candida albicans; assay: Antimicrobial activity against Candida albicans at 30 ug/disk; format: functional; details: read-out: IZ
[3] = tested on: Trichophyton mentagrophytes; assay: Antimicrobial activity against Trichophyton mentagrophytes at 30 ug/disk; format: functional; details: read-out: IZ
[4] = tested on: Amorphotheca resinae; assay: Antimicrobial activity against Cladosporium resinae at 30 ug/disk; format: functional; details: read-out: IZ
[5] = tested on: Escherichia coli; assay: Antimicrobial activity against Escherichia coli; format: functional, organism-based
[6] = tested on: Bacillus subtilis; assay: Antimicrobial activity against Bacillus subtilis at 30 ug/5 mm disk; format: functional

| Structure (SMILES) | zone of inhibition at 30 µg/disc [1] [mm] | zone of inhibition at 30 µg/disc [2] [mm] | zone of inhibition at 30 µg/disc [3] [mm] | zone of inhibition at 30 µg/disc [4] [mm] | Activity [5] | inhibition zone (IZ) [6] [mm] |
| --- | --- | --- | --- | --- | --- | --- |
| Oc1cccc(CCc2ccccc2)c1Cl | 2 | 2 | 3 | 0 | inactive | – |
| Oc1c(Cl)cc(Cl)c(CCc2ccccc2)c1Cl | – | 2 | 7 | 1 | inactive | 2 |
| Oc1c(Cl)ccc(CCc2ccccc2)c1Cl | 2 | 2 | 12 | 2 | inactive | – |
